Test results as given in PMC11359831, “Stepwise Structural Simplification of the Dihydroxyanthraquinone Moiety of a Multitarget Rhein-Based Anti-Alzheimer Lead to Improve Drug Metabolism and Pharmacokinetic Properties” (Pharmaceutics, 2024).
In brackets after ≈: the same amount, converted by molar mass.

Columns and labels:
[1] = target: T1, tau aggregation (Homo sapiens, UniProt P10636); test: Tau aggregation inhibition in genetically modified E. coli cells (Th-S fluorescence); assay type: cell-based, Escherichia coli; conditions: live E. coli cells overexpressing tau
T1 construct: expressed in transfected cells; host or cells: E. coli BL21 (DE3) bearing pTARA and pRKT42
Description: For tau overexpression, M9 minimal medium (10 mL) containing glucose (0.5%), ampicillin (50 μg/mL), chloramphenicol (12.5 μg/mL), and E. coli BL21 (DE3) cells bearing the pTARA plasmid, which carries the RNA polymerase gene of the T7 phage (T7RP) under control of the PBAD promoter, and subsequent transformation with the pRKT42 vector were used instead. In this case, the overnight culture for a 1:500 dilution was added to fresh M9 minimal medium containing glucose (0.5%), chloramphenicol (12.5 μg/mL), ampicillin (50 μg/mL), and Th-S (250 µM).
(§1) For Aβ42 overexpression, the corresponding E. coli cell cultures were kept growing overnight (37 °C; 250 rpm) until they reached an OD600 = 0.6. These cultures (980 μL) were added to a mixture of 10 μL of a solution of the new compounds in DMSO and 10 μL of 100 mM isopropyl 1-thio-β-D-galactopyranoside (IPTG), to reach a final compound concentration of 10 μM. The same procedure was used for tau overexpression but employing 10 μL of 25% arabinose instead of IPTG. The resulting E. coli cultures were kept growing overnight (37 °C; 1400 rpm) using an Eppendorf Thermomixer (Hamburg, Germany). To prepare a negative control for the assay, showing the highest amount of the amyloidogenic protein, the same quantity of DMSO, without the compounds to be tested, was added to the sample. With the double purpose of obtaining positive controls devoid of the amyloidogenic proteins and assessing the potential intrinsic toxicity of the new compounds, we also prepared samples that had not been treated with either IPTG or arabinose (non-induced samples).
(§2) To assess the inhibitory activity of compounds 4–7 on Aβ42 and tau aggregation within E. coli cells, a fluorescence assay was employed, using Th-S ([…] stock solution, T1892, Sigma, St. Louis, MO, USA) in double-distilled water (Milli-Q system, Millipore, Bay City, MI, USA) and an Aminco Bowman Series 2 luminescence spectrophotometer (Aminco-Bowman AB2, SLM Aminco, Rochester, NY, USA), working at 25 °C in the wavelength range of 460–600 nm, with λex = 445 nm, slit widths of 4 nm, and λem = 485 nm. The results are given as the average of nine independent experiments, each performed in triplicate.

[2] = target: T2, Aβ42 aggregation (Homo sapiens, UniProt P05067); test: Aβ42 aggregation inhibition in genetically modified E. coli cells (Th-S fluorescence); assay type: cell-based, Escherichia coli; conditions: live E. coli cells overexpressing Aβ42
T2 construct: expressed in transfected cells; host or cells: E. coli BL21 (DE3) bearing pET28a-Aβ42
Description: For Aβ42 overexpression, M9 minimal medium (10 mL) containing kanamycin (50 μg/mL) was added to a colony of E. coli BL21 (DE3) competent cells, bearing the pET28a plasmid (Novagen, Inc., Madison, WI, USA), which contains the DNA sequence encoding for Aβ42. After overnight culture, the volume necessary to obtain a 1:500 dilution was added to fresh M9 minimal medium that contained kanamycin (50 μg/mL) and thioflavin-S (Th-S, 250 µM).
as §1, §2

[3] = target: T3, human recombinant BACE-1 (hBACE-1) (Homo sapiens, UniProt P56817); test: In vitro hBACE-1 inhibition (fluorometric method); assay type: biochemical
T3 construct: purchased Invitrogen, Carlsbad, CA, USA
Description: The inhibition of human recombinant BACE-1 (hBACE-1) (Invitrogen, Carlsbad, CA, USA) by hybrids 4–7 was evaluated by a fluorometric method. The substrate (Panvera peptide, 10 μL, 250 nM final concentration) was added to a solution (10 μL) of hybrids 4–7 or buffer in control wells (20 mM sodium acetate at pH 4.5, with 0.1% w/v CHAPS). After the addition of the enzyme (10 μL, 12.91 mU), the assay solution was incubated for 1 h at 37 °C. Thereafter, STOP solution (10 μL, 2.5 M sodium acetate) was added and the fluorescence was read at […]. The DMSO concentration in the assay solution was kept <5% (v/v) to ensure no significant loss of BACE-1 activity. The background signal, determined in control wells with all the components of the assay but BACE-1, was subtracted. The fluorescence intensities in the presence of increasing concentrations or in the absence of hybrids 4–7 were compared to calculate the percent of enzyme inhibition produced by the compounds, by applying the following expression: 100 − (IFi/IFo × 100), in which IFi and IFo are the fluorescence intensities in the presence and in the absence of the compounds, respectively. Additionally, the IC50 values were calculated (GraphPad Prism 4.03 software, GraphPad Software Inc., San Diego, CA, USA) and are given as the mean ± SEM of at least two experiments, each performed in triplicate.

[4] = PAMPA-BBB, drugs used for assay validation
Description: The parallel artificial membrane permeability assay for the blood–brain barrier (PAMPA-BBB) [41] was used to assess the in vitro brain permeability of the new compounds. For the assay, the compounds were dissolved in mixtures of PBS and ethanol (70:30).

[5] = physchem; conditions: 37 °C, aqueous buffer, kinetic from dmso stock
Description: The resulting solutions were incubated at 37 °C. After 2 h incubation, the samples were read using a BMG LABTECH NEPHELOstar Plus laser nephelometer (Ortenberg, Germany).

T3 sequence (P56817 46-501): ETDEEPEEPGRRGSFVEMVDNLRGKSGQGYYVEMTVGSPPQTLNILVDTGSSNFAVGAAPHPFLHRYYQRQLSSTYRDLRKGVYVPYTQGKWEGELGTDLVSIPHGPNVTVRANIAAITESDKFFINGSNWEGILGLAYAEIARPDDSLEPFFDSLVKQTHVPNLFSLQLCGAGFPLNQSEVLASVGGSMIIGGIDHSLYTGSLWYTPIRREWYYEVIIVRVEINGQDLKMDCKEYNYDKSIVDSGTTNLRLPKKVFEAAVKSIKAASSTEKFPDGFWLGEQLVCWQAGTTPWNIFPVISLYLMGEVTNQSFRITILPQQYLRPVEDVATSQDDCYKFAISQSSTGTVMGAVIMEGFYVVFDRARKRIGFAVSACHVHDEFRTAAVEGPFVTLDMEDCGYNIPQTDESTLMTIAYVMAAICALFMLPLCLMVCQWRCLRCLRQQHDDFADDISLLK
T2 sequence (P05067 672-713): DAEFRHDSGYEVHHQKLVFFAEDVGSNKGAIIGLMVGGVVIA
T1 sequence (P10636 other isoform, or with tags, fused parts or gaps): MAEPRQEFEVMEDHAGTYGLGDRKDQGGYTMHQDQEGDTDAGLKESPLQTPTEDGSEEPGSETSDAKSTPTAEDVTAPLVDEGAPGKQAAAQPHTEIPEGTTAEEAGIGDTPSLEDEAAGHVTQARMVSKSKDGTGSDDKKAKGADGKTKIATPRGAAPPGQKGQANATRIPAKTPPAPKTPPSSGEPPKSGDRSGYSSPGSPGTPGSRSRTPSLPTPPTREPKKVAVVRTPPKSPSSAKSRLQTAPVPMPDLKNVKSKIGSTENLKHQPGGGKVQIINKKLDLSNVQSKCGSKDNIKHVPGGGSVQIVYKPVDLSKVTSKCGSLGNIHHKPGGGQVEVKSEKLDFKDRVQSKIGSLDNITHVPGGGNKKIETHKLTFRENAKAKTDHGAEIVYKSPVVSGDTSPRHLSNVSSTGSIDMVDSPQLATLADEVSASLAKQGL

O=C(NCCCCCCCCNc1c2c(nc3cc(Cl)ccc13)CCCC2)c1ccc2nc(-c3ccc(Cl)cc3)c3c(c2c1)NCCC3 [DP128, reference compound]
Tau Aggregation % inh. @10 µM [1]: 69.9 ± 0.7%
Aβ42 Aggregation % inh. @10 µM [2]: 78.1 ± 1.7%

O=c1c(O)c(-c2cc(O)c(O)c(O)c2)oc2cc(O)cc(O)c12 [Myr, myricetin, reference compound]
IC50 [3]: 4.18 ± 0.5 µM

CN1C(C(=O)Nc2ccccn2)=C(O)c2ccccc2S1(=O)=O [Piroxicam, reference compound]
Experimental Pe Value [4]: 2.2 ± 0.1 10^−6 cm s^−1

CC(=O)[C@H]1CC[C@H]2[C@@H]3CCC4=CC(=O)CC[C@]4(C)[C@H]3CC[C@]12C [Progesterone, reference compound]
solubility at 2 h ([5]; Solubility): 5.9 µM (≈ 1.86 µg/mL)

C[C@H]1O[C@@H](O[C@H]2[C@@H](O)C[C@H](O[C@H]3[C@@H](O)C[C@H](O[C@H]4CC[C@@]5(C)[C@H](CC[C@@H]6[C@@H]5C[C@@H](O)[C@]5(C)[C@@H](C7=CC(=O)OC7)CC[C@]65O)C4)O[C@@H]3C)O[C@@H]2C)C[C@H](O)[C@@H]1O [digoxin, reference compound]
solubility at 2 h [5]: 86.3 µM (≈ 67.4 µg/mL)
